Drawing on ChEMBL document CHEMBL2074549, “Regulation of 2-acetylaminofluorene-and 3-methylcholanthrene--mediated induction of multidrug resistance and cytochrome P450IA gene family expression in primary hepatocyte cultures and rat liver” (Mol Carcinog, 1991), this text covers Activity for two compounds.

Data set [1] concerns the target Multidrug resistance protein 1a (Rattus norvegicus) (UniProt Q6PSM0). The experiment in a line: TP_TRANSPORTER: Western blot, primary hepatocytes. The class given is functional, cell-based. Particulars: Hepatocyte.
Data set [2] deals with ATP-dependent translocase ABCB1 (Rattus norvegicus, UniProt P43245). The experiment in a line: TP_TRANSPORTER: Northern blot from primary hepatocytes. The class given is functional, Hepatocyte.
ATP-dependent translocase ABCB1, sequence (P43245 whole entry): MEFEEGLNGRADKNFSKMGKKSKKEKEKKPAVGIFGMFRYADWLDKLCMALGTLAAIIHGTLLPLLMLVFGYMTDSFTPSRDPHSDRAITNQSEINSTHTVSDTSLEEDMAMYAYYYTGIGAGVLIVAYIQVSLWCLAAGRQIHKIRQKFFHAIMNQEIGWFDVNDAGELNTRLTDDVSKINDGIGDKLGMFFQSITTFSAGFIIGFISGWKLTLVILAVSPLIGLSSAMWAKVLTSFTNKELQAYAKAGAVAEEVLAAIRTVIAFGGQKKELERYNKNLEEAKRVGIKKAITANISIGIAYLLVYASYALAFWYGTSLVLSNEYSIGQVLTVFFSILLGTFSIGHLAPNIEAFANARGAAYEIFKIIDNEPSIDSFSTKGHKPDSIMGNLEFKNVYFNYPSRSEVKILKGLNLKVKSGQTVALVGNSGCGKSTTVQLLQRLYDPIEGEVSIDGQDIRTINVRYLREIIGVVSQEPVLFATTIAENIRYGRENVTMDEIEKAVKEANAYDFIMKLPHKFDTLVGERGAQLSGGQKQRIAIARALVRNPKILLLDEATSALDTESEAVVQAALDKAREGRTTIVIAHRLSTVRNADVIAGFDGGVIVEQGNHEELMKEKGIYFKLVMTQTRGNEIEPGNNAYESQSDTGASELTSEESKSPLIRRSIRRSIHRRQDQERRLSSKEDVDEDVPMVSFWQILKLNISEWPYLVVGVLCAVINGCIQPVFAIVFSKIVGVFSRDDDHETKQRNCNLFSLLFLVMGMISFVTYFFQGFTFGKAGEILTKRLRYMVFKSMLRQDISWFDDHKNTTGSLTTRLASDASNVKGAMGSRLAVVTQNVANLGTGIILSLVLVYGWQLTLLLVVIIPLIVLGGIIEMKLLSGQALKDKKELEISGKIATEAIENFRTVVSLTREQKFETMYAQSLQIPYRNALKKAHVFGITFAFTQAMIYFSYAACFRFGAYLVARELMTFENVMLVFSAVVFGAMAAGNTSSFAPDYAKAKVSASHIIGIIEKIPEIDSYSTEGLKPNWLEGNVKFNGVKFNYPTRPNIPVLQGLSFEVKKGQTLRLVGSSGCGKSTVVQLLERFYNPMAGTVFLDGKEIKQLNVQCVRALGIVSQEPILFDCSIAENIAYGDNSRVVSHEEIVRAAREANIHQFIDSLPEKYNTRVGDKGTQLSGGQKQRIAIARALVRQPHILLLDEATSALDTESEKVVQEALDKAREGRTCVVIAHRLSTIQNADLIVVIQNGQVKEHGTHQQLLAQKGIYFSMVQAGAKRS

Multidrug resistance protein 1a (Rattus norvegicus), sequence (Q6PSM0 as listed by the source): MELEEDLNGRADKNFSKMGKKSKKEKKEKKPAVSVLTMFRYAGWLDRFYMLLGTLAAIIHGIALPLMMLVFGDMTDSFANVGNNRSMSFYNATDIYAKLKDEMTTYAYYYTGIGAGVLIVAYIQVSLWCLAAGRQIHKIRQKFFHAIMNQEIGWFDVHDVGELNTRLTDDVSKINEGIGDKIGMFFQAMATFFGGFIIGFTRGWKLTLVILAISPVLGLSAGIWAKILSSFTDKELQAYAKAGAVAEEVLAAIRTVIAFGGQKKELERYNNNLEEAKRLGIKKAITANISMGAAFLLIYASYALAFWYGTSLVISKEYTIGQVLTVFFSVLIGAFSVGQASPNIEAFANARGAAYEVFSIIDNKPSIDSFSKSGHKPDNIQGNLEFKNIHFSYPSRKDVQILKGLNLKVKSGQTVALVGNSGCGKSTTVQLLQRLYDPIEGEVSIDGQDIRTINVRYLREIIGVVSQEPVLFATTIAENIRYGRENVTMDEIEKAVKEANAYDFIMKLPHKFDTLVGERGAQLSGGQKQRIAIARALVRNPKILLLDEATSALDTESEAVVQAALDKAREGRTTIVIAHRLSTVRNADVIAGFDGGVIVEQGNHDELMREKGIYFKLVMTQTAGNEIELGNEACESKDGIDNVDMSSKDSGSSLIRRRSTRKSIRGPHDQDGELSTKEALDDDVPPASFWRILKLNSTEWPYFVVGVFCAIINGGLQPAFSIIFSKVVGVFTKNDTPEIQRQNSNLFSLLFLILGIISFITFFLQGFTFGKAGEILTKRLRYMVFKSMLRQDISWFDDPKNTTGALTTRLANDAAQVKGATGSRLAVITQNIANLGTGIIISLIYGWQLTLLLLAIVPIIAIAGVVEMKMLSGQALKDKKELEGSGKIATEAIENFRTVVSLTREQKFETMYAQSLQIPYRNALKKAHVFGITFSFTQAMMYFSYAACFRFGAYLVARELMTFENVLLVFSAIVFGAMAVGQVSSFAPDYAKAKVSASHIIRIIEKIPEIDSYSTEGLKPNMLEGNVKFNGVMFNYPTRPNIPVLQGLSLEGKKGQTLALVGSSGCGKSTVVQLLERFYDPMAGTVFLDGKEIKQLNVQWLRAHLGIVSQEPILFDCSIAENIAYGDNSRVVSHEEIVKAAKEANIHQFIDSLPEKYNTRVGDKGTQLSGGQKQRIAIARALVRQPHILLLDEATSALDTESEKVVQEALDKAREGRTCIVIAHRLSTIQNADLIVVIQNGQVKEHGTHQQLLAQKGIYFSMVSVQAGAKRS

Take `CC(=O)Nc1ccc2c(c1)Cc1ccccc1-2`: in data set [1], the Activity result was “inducer [+]”.
As for `Cc1ccc2cc3c(ccc4ccccc43)c3c2c1CC3` [3-METHYLCHOLANTHRENE], the Activity result in data set [2] and in data set [1] was “inducer [+]” each time.
